Measurements reported in ChEMBL document CHEMBL6071205, “A New Frontier in Targeted Therapies: Harnessing PROTACs and Advanced Delivery Systems” (ACS Med Chem Lett, 2024).

target: von Hippel-Lindau disease tumor suppressor/GTPase KRas (Homo sapiens, UniProt P01116+P40337, G12D); assay: PROTAC activity at VHL/KRAS G12D mutant in human ASPC1 cells assessed as induction of protein degradation incubated for 24 hrs by HiBiT based Nano-Glo luminescence assay; assay type: cell-based
Sequence (P01116 whole entry G12D, stated change not applied): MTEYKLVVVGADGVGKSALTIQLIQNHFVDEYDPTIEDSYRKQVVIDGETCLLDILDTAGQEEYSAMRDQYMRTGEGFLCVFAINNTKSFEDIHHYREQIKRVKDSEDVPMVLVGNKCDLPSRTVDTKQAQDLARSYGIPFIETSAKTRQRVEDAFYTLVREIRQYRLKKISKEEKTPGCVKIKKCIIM
Sequence (P40337 whole entry, stated change not applied): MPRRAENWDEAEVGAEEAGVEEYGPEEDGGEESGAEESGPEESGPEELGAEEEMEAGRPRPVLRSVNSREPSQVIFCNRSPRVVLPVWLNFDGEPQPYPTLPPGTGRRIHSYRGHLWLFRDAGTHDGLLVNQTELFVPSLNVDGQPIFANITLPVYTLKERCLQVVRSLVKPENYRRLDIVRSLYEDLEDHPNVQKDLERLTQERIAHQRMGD

With `C#Cc1c(F)ccc2cccc(-c3ncc4c(N5CC6CCC(C5)N6)nc(OC[C@@]56CCCN5[C@H](COC(=O)N5CCC(OC7CN(Cc8ccc9c(c8)n(C)c(=O)n9C8CCC(=O)NC8=O)C7)CC5)CC6)nc4c3F)c12` (some centres not stated) as the compound, how does the DC50 read?
Its DC50 is at most 100 nM.

For `C#Cc1c(F)ccc2cccc(-c3ncc4c(N5CC6CCC(C5)N6)nc(OC[C@@]56CCCN5[C@H](COC(=O)N5CC(CN7CCN(c8ccc9c(c8)n(C)c(=O)n9C8CCC(=O)NC8=O)CC7)C5)CC6)nc4c3F)c12` (some centres not stated), which DC50 is on record?
The DC50 was at most 100 nM.

Which DC50 does the source give for `C#Cc1c(F)ccc2cccc(-c3ncc4c(N5CC6CCC(C5)N6)nc(OC[C@@]56CCCN5[C@H](COC(=O)N5CCC(OCCC#Cc7ccc8c(c7)n(C)c(=O)n8C7CCC(=O)NC7=O)CC5)CC6)nc4c3F)c12` (some centres not stated) here?
Its DC50 is at most 100 nM.

Which DC50 does the source give for `C#Cc1c(F)ccc2cccc(-c3ncc4c(N5CC6CCC(C5)N6)nc(OC[C@@]56CCCN5[C@H](COC(=O)N5CCC(CC7CCN(Cc8ccc9c(c8)n(C)c(=O)n9C8CCC(=O)NC8=O)CC7)CC5)CC6)nc4c3F)c12` (some centres not stated) here?
Its DC50 is at most 100 nM.

With `C#Cc1c(F)ccc2cc(O)cc(-c3ncc4c(N5CC6CCC(C5)N6)nc(OC[C@@]56CCCN5[C@H](COC(=O)N5CCC(OCCCc7ccc8c(c7)n(C)c(=O)n8C7CCC(=O)NC7=O)CC5)CC6)nc4c3F)c12` (some centres not stated) as the compound, how does the DC50 read?
Its DC50 is at most 100 nM.

For `C#Cc1c(F)ccc2cccc(-c3ncc4c(N5CC6CCC(C5)N6)nc(OC[C@@]56CCCN5[C@H](COC(=O)N5CCC(OCCCc7ccc8c(c7)n(C)c(=O)n8C7CCC(=O)NC7=O)CC5)CC6)nc4c3F)c12` (some centres not stated), which DC50 is on record?
The DC50 was at most 100 nM.

With `C#Cc1c(F)ccc2cccc(-c3ncc4c(N5CC6CCC(C5)N6)nc(OC[C@@]56CCCN5[C@H](COC(=O)N5CCC(OC7CCN(Cc8ccc9c(c8)n(C)c(=O)n9C8CCC(=O)NC8=O)CC7)CC5)CC6)nc4c3F)c12` (some centres not stated) as the compound, how does the DC50 read?
Its DC50 is at most 100 nM.

Which DC50 does the source give for `C#Cc1c(F)ccc2cccc(-c3ncc4c(N5CC6CCC(C5)N6)nc(OC[C@@]56CCCN5[C@H](COC(=O)N5CCC(OCCCCCCc7ccc8c(c7)n(C)c(=O)n8C7CCC(=O)NC7=O)CC5)CC6)nc4c3F)c12` (some centres not stated) here?
The DC50 was at most 100 nM.

With `C#Cc1c(F)ccc2cccc(-c3ncc4c(N5CC6CCC(C5)N6)nc(OC[C@@]56CCCN5[C@H](COC(=O)N5CCN(C7CCN(Cc8ccc9c(c8)n(C)c(=O)n9C8CCC(=O)NC8=O)CC7)CC5)CC6)nc4c3F)c12` (some centres not stated) as the compound, how does the DC50 read?
The DC50 was at most 100 nM.

With `C#Cc1c(F)ccc2cc(O)cc(-c3ncc4c(N5CC6CCC(C5)N6)nc(OC[C@@]56CCCN5[C@H](COC(=O)N5CCC(OCc7ccc8c(c7)n(C)c(=O)n8C7CCC(=O)NC7=O)CC5)CC6)nc4c3F)c12` (some centres not stated) as the compound, how does the DC50 read?
The DC50 was at least 100 nM.

Which DC50 does the source give for `C#Cc1c(F)ccc2cccc(-c3ncc4c(N5CC6CCC(C5)N6)nc(OC[C@@]56CCCN5[C@H](COC(=O)N5CCC7(CCC(CCc8ccc9c(c8)n(C)c(=O)n9C8CCC(=O)NC8=O)CC7)CC5)CC6)nc4c3F)c12` (some centres not stated) here?
Its DC50 is at least 100 nM.

How did the DC50 turn out when `C#Cc1c(F)ccc2cccc(-c3ncc4c(N5CC6CCC(C5)N6)nc(OC[C@@]56CCCN5[C@H](COC(=O)N5CCC(CN7CCC(c8ccc9c(c8)n(C)c(=O)n9C8CCC(=O)NC8=O)CC7)CC5)CC6)nc4c3F)c12` (some centres not stated) was run?
The DC50 was at most 100 nM.
